According to patent US12433865B2, “Compositions comprising PGI2-receptor agonists and processes for the preparation thereof” (Arena Pharmaceuticals, Inc., priority 2018, dated 2025):

Test: Release (dissolution) profile of tablets, USP Apparatus 1 (baskets)
Assay type: physicochemical
Details: for mean value (n = 6) of % of Compound 1 released: tablet, 25 mg Methocel K100 Premium LVCR
Description: USP Apparatus 1 (BASKETS) is described, for example, in the United States Pharmacopeial Convention, Feb. 1, 2012, Chapter <711> (“Dissolution”), incorporated by reference herein in its entirety. See http://www.usp.org/sites/default/files/usp_pdf/EN/USPNF/revisions/m99470-gc_711.pdf. The USP Apparatus 1 (baskets) assembly consists of the following: a vessel, which may be covered, made of glass or other inert, transparent material; a motor; a metallic drive shaft; and a cylindrical basket. The materials should not sorb, react, or interfere with the specimen being tested. The vessel is partially immersed in a suitable water bath of any convenient size or heated by a suitable device such as a heating jacket. The water bath or heating device permits holding the temperature inside the vessel at 37±0.5° during the test and keeping the bath fluid in constant, smooth motion. No part of the assembly, including the environment in which the assembly is placed, contributes significant motion, agitation, or vibration beyond that due to the smoothly rotating stirring element. An apparatus that permits observation of the specimen and stirring element during the test is preferable. The vessel is cylindrical, with a hemispherical bottom and with one of the following dimensions and capacities: for a nominal capacity of 1 L, the height is 160 mm to 210 mm and its inside diameter is 98 mm to 106 mm; for a nominal capacity of 2 L, the height is 280 mm to 300 mm and its inside diameter is 98 mm to 106 mm; and for a nominal capacity of 4 L, the height is 280 mm to 300 mm and its inside diameter is 145 mm to 155 mm. Its sides are flanged at the top. A fitted cover may be used to retard evaporation. If a cover is used, it provides sufficient openings to allow ready insertion of the thermometer and withdrawal of specimens. The shaft is positioned so that its axis is not more than 2 mm at any point from the vertical axis of the vessel and rotates smoothly and without significant wobble that could affect the results. The vertical center line of the blade passes through the axis of the shaft so that the bottom of the blade is flush with the bottom of the shaft. A distance of 25 f 2 mm between the bottom of the blade and the inside bottom of the vessel is maintained during the test. The metallic or suitably inert, rigid blade and shaft comprise a single entity. A suitable two-part detachable design may be used provided the assembly remains firmly engaged during the test.
A speed-regulating device is used that allows the shaft rotation speed to be selected and maintained at the specified rate within +4%. Shaft and basket components of the stirring element are fabricated of stainless steel, type 316, or other inert material. A basket having a gold coating of about 0.0001 inch (2.5 μm) thick may be used. A dosage unit is placed in a dry basket at the beginning of each test. The distance between the inside bottom of the vessel and the bottom of the basket is maintained at 25±2 mm during the test.
The release profiles for modified-release tablets were measured using USP Apparatus 1 (baskets).
All release profiles disclosed in Tables 6a-6d were measured with USP Apparatus 1 (baskets) at 100 rpm in 500 mL of aqueous sodium phosphate at a concentration of 0.05 M (pH=6.8). The values in a given table relate to tablets obtained from the same batch. Values shown represent mean values over a number of dissolution tests (“n” in each table) in each case.

release rate of tablets relative to modified-release capsule (0.5 mg tablet with 40% HPMC K4M CR): faster | mean value (n = 6) of % of Compound 1 released (Table 6a: initial release profile, 0.05 mg Compound 1, 25 mg Methocel K4M Premium CR, 60 min): 6.9% | mean value (n = 6) of % of Compound 1 released (Table 6a: initial release profile, 0.05 mg Compound 1, 25 mg Methocel K4M Premium CR, 120 min): 25.3% | mean value (n = 6) of % of Compound 1 released (Table 6a: initial release profile, 0.05 mg Compound 1, 25 mg Methocel K4M Premium CR, 180 min): 35.8% | mean value (n = 6) of % of Compound 1 released (Table 6a: initial release profile, 0.05 mg Compound 1, 25 mg Methocel K4M Premium CR, 240 min): 45.1% | mean value (n = 6) of % of Compound 1 released (Table 6a: initial release profile, 0.05 mg Compound 1, 25 mg Methocel K4M Premium CR, 360 min): 62% | mean value (n = 6) of % of Compound 1 released (Table 6a: initial release profile, 0.05 mg Compound 1, 25 mg Methocel K4M Premium CR, 480 min): 74.8% | mean value (n = 6) of % of Compound 1 released (Table 6a: initial release profile, 0.05 mg Compound 1, 25 mg Methocel K4M Premium CR, 600 min): 86.6% | mean value (n = 6) of % of Compound 1 released (Table 6a: initial release profile, 0.05 mg Compound 1, 25 mg Methocel K4M Premium CR, 840 min): 100.4% | mean value (n = 6) of % of Compound 1 released (Table 6b: initial release profile, 0.5 mg Compound 1, 25 mg Methocel K4M Premium CR, 60 min): 17.9% | mean value (n = 6) of % of Compound 1 released (Table 6b: initial release profile, 0.5 mg Compound 1, 25 mg Methocel K4M Premium CR, 120 min): 27.3% | mean value (n = 6) of % of Compound 1 released (Table 6b: initial release profile, 0.5 mg Compound 1, 25 mg Methocel K4M Premium CR, 180 min): 36.9% | mean value (n = 6) of % of Compound 1 released (Table 6b: initial release profile, 0.5 mg Compound 1, 25 mg Methocel K4M Premium CR, 240 min): 45.5% | mean value (n = 6) of % of Compound 1 released (Table 6b: initial release profile, 0.5 mg Compound 1, 25 mg Methocel K4M Premium CR, 360 min): 61.1% | mean value (n = 6) of % of Compound 1 released (Table 6b: initial release profile, 0.5 mg Compound 1, 25 mg Methocel K4M Premium CR, 480 min): 74.2% | mean value (n = 6) of % of Compound 1 released (Table 6b: initial release profile, 0.5 mg Compound 1, 25 mg Methocel K4M Premium CR, 600 min): 84.8% | mean value (n = 6) of % of Compound 1 released (Table 6b: initial release profile, 0.5 mg Compound 1, 25 mg Methocel K4M Premium CR, 840 min): 98.1% | mean value (n = 6) of % of Compound 1 released (Table 6c: after storage at 40° C. and 75% RH for 6 months, 0.05 mg Compound 1, 25 mg Methocel K4M Premium CR, 60 min): 17% | mean value (n = 6) of % of Compound 1 released (Table 6c: after storage at 40° C. and 75% RH for 6 months, 0.05 mg Compound 1, 25 mg Methocel K4M Premium CR, 120 min): 27.1% | mean value (n = 6) of % of Compound 1 released (Table 6c: after storage at 40° C. and 75% RH for 6 months, 0.05 mg Compound 1, 25 mg Methocel K4M Premium CR, 180 min): 36.9% | mean value (n = 6) of % of Compound 1 released (Table 6c: after storage at 40° C. and 75% RH for 6 months, 0.05 mg Compound 1, 25 mg Methocel K4M Premium CR, 240 min): 45.4% | mean value (n = 6) of % of Compound 1 released (Table 6c: after storage at 40° C. and 75% RH for 6 months, 0.05 mg Compound 1, 25 mg Methocel K4M Premium CR, 360 min): 61.1% | mean value (n = 6) of % of Compound 1 released (Table 6c: after storage at 40° C. and 75% RH for 6 months, 0.05 mg Compound 1, 25 mg Methocel K4M Premium CR, 480 min): 75.8% | mean value (n = 6) of % of Compound 1 released (Table 6c: after storage at 40° C. and 75% RH for 6 months, 0.05 mg Compound 1, 25 mg Methocel K4M Premium CR, 600 min): 86.9% | mean value (n = 6) of % of Compound 1 released (Table 6c: after storage at 40° C. and 75% RH for 6 months, 0.05 mg Compound 1, 25 mg Methocel K4M Premium CR, 840 min): 100% | mean value (n = 6) of % of Compound 1 released (Table 6d: after storage at 40° C. and 75% RH for 6 months, 0.5 mg Compound 1, 25 mg Methocel K4M Premium CR, 60 min): 6.8% | mean value (n = 6) of % of Compound 1 released (Table 6d: after storage at 40° C. and 75% RH for 6 months, 0.5 mg Compound 1, 25 mg Methocel K4M Premium CR, 120 min): 24.3% | mean value (n = 6) of % of Compound 1 released (Table 6d: after storage at 40° C. and 75% RH for 6 months, 0.5 mg Compound 1, 25 mg Methocel K4M Premium CR, 180 min): 33% | mean value (n = 6) of % of Compound 1 released (Table 6d: after storage at 40° C. and 75% RH for 6 months, 0.5 mg Compound 1, 25 mg Methocel K4M Premium CR, 240 min): 41.3% | mean value (n = 6) of % of Compound 1 released (Table 6d: after storage at 40° C. and 75% RH for 6 months, 0.5 mg Compound 1, 25 mg Methocel K4M Premium CR, 360 min): 55.5% | mean value (n = 6) of % of Compound 1 released (Table 6d: after storage at 40° C. and 75% RH for 6 months, 0.5 mg Compound 1, 25 mg Methocel K4M Premium CR, 480 min): 67.9% | mean value (n = 6) of % of Compound 1 released (Table 6d: after storage at 40° C. and 75% RH for 6 months, 0.5 mg Compound 1, 25 mg Methocel K4M Premium CR, 600 min): 79.4% | mean value (n = 6) of % of Compound 1 released (Table 6d: after storage at 40° C. and 75% RH for 6 months, 0.5 mg Compound 1, 25 mg Methocel K4M Premium CR, 840 min): 94.7% | change of release profile following storage over time (modified-release tablets (FIGS. 12-14), storage at 40° C. and 75% RH for six months): did not change significantly | release rate of tablets relative to modified-release capsule (tablet with 30% HPMC K4M and 20% HPMC K100 LVCR): slightly faster | release rate of tablets relative to modified-release capsule (tablet with 40% HPMC K4M and 10% HPMC K100 LVCR, time points <6 hrs): faster | release rate of tablets relative to modified-release capsule (tablet with 40% HPMC K4M and 10% HPMC K100 LVCR, time points ≥6 hrs): slower | difference of percentage by weight of compound released, initial vs after storage (tablets 0.05 mg and 0.5 mg (FIGS. 12 and 13), storage at 40° C. and 75% RH for six months, any time point equal to or greater than 2 hours): ≤ 10%
Structure (SMILES): O=C(O)COC[C@H]1CC[C@H](COC(=O)N(c2ccccc2)c2ccc(Cl)cc2)CC1 [Compound 1, 2-(((1r,4r)-4-(((4-chlorophenyl)(phenyl)carbamoyloxy)methyl)cyclohexyl)methoxy)acetic acid]
